Reference: patent publication US10336739B2, “4-hydroxy-3-(heteroaryl)pyridine-2-one APJ agonists” (BRISTOL-MYERS SQUIBB COMPANY, priority 2015, dated 2019)

Each compound was assayed against human APJ receptor (Homo sapiens (Human), UniProt P35414) (assay: Intracellular cAMP accumulation assay (APJ hcAMP, HTRF)). Conditions: HEK293 cells stably expressing human APJ receptor; inhibition of forskolin-mediated cAMP production; read-out: hAPJ cAMP EC50 (nM) Potency range.
Format: cell-based
How it was run: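 HEK293 cells stably expressing human APJ, 5,000 per well, exposed to compound with […] IBMX and 2 μM forskolin for 30 minutes at room temperature. cAMP measured by HTRF after lysis and 60 min detection incubation. EC50 from sigmoidal variable-slope fits of inhibition of forskolin-induced cAMP, quantified against a cAMP standard curve.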

Sequence of human APJ receptor (P35414 whole entry): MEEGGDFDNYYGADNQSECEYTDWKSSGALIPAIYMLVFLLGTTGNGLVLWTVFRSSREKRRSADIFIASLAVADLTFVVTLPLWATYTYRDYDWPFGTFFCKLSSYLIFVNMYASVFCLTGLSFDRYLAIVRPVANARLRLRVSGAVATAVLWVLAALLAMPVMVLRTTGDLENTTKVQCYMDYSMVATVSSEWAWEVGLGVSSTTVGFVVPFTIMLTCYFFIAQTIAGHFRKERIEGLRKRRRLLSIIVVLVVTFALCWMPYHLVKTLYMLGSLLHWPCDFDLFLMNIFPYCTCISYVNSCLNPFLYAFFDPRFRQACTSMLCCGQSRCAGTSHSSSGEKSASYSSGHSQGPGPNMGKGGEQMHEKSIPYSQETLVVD

EC50	SMILES
0.01 to 10 nM	CCCCc1nc(O)c(-c2nnc(CNC(=O)c3ccccc3)o2)c(O)c1-c1cc(C(C)C)ccc1OC [Example 247, N-[(5-{6-butyl-2,4-dihydroxy-5-[2-methoxy-5-(propan-2-yl)phenyl]pyridin-3-yl}-1,3,4-oxadiazol-2-yl)methyl] benzamide]
0.01 to 10 nM	CCOCc1nc(O)c(-c2nnc(Cc3noc4ccccc34)o2)c(O)c1-c1ccccc1OC [Example 248, 3-{5-[(1,2-benzoxazol-3-yl)methyl]-1,3,4-oxadiazol-2-yl}-6-(ethoxymethyl)-5-(2-methoxyphenyl) pyridine-2,4-diol]
0.01 to 10 nM	CCOCc1nc(O)c(-c2nnc(Cc3ccc(Cl)cc3)o2)c(O)c1-c1ccccc1OC [Example 249, 3-{5-[(4-chlorophenyl)methyl]-1,3,4-oxadiazol-2-yl}-6-(ethoxymethyl)-5-(2-methoxyphenyl) pyridine-2,4-diol]
0.01 to 10 nM	CCCCc1nc(O)c(-c2nnc(CNC(=O)c3ccccc3)o2)c(O)c1-c1cccc(OC)c1OC [Example 250, N-({5-[6-butyl-5-{2,3-dimethoxyphenyl)-2,4-dihydroxy-pyridin-3-yl]-1,3,4-oxadiazol-2-yl}methyl) benzamide]
0.01 to 10 nM	CCOCc1nc(O)c(-c2nnc(CNC(=O)c3ccccc3)o2)c(O)c1-c1ccccc1OC [Example 251, N-({5-[6-(ethoxymethyl)-2,4-dihydroxy-5-(2-methoxyphenyl)-pyridin-3-yl]-1,3,4-oxadiazol-2-yl}methyl) benzamide]
0.01 to 10 nM	CCCCc1nc(O)c(-c2nnc(CC(=O)Nc3cccnc3)o2)c(O)c1-c1c(OC)cccc1OC [Example 252, 2-{5-[6-butyl-5-(2,6-dimethoxyphenyl)-2,4-dihydroxy-pyridin-3-yl]-1,3,4-oxadiazol-2-yl}-N-(pyridin-3-yl)acetamide]
0.01 to 10 nM	CCOCc1nc(O)c(-c2nnc(CC(=O)Nc3nccs3)o2)c(O)c1-c1c(OC)cccc1OC [Example 253, 2-{5-[5-(2,6-dimethoxyphenyl)-6-(ethoxymethyl)-2,4-dihydroxypyridin-3-yl]-1,3,4-oxadiazol-2-yl}-N-(1,3-thiazol-2-yl)acetamide]
0.01 to 10 nM	CCCCc1nc(O)c(-c2nnc(CC(=O)NCc3nc4ccccc4s3)o2)c(O)c1-c1c(OC)cccc1OC [Example 254, N-[(1,3-benzothiazol-2-yl)methyl]-2-{5-[6-butyl-5-(2,6-dimethoxyphenyl)-2,4-dihydroxypyridin-3-yl]-1,3,4-oxadiazol-2-yl}acetamide]
0.01 to 10 nM	CCCCc1nc(O)c(-c2nnc(CC(=O)NCc3cccnc3)o2)c(O)c1-c1c(OC)cccc1OC [Example 255, 2-{5-[6-butyl-5-(2,6-dimethoxyphenyl)-2,4-dihydroxy-pyridin-3-yl]-1,3,4-oxadiazol-2-yl}-N-[(pyridin-3-yl)methyl] acetamide]
0.01 to 10 nM	CCCCc1nc(O)c(-c2nnc(CC(=O)NCc3ncco3)o2)c(O)c1-c1c(OC)cccc1OC [Example 256, 2-{5-[6-butyl-5-(2,6-dimethoxyphenyl)-2,4-dihydroxypyridin-3-yl]-1,3,4-oxadiazol-2-yl}-N-[(1,3-oxazol-2-yl)methyl] acetamide]
0.01 to 10 nM	CCCCc1nc(O)c(-c2nnc(CC(=O)NCCc3ccc(S(N)(=O)=O)cc3)o2)c(O)c1-c1c(OC)cccc1OC [Example 257, 2-{5-[6-butyl-5-(2,6-dimethoxyphenyl)-2,4-dihydroxy-pyridin-3-yl]-1,3,4-oxadiazol-2-yl}-N-[2-(4-sulfamoylphenyl)ethyl]acetamide]
0.01 to 10 nM	CCCCc1nc(O)c(-c2nnc(CC(=O)NCCc3ccccc3Cl)o2)c(O)c1-c1c(OC)cccc1OC [Example 258, 2-{5-[6-butyl-5-(2,6-dimethoxyphenyl)-2,4-dihydroxy-pyridin-3-yl]-1,3,4-oxadiazol-2-yl}-N-[2-(2-chlorophenyl)ethyl]acetamide]
0.01 to 10 nM	CCCCc1nc(O)c(-c2nnc(CC(=O)NCc3cccc(Cl)c3)o2)c(O)c1-c1c(OC)cccc1OC [Example 259, 2-{5-[6-butyl-5-(2,6-dimethoxyphenyl)-2,4-dihydroxy-pyridin-3-yl]-1,3,4-oxadiazol-2-yl}-N-[(3-chlorophenyl)methyl]acetamide]
0.01 to 10 nM	CCCCc1nc(O)c(-c2nnc(CC(=O)N(C)Cc3ccccc3)o2)c(O)c1-c1c(OC)cccc1OC [Example 260, N-benzyl-2-{5-[6-butyl-5-(2,6-dimethoxyphenyl)-2,4-dihydroxy-pyridin-3-yl]-1,3,4-oxadiazol-2-yl}-N-methylacetamide]
0.01 to 10 nM	CCCCc1nc(O)c(-c2nnc(CC(=O)N(C)CCc3ccccc3)o2)c(O)c1-c1c(OC)cccc1OC [Example 261, 2-{5-[6-butyl-5-(2,6-dimethoxyphenyl)-2,4-dihydroxy-pyridin-3-yl]-1,3,4-oxadiazol-2-yl}-N-methyl-N-(2-phenylethyl) acetamide]
0.01 to 10 nM	C#CCNC(=O)Cc1nnc(-c2c(O)nc(CCCC)c(-c3c(OC)cccc3OC)c2O)o1 [Example 262, 2-{5-[6-butyl-5-(2,6-dimethoxyphenyl)-2,4-dihydroxy-pyridin-3-yl]-1,3,4-oxadiazol-2-yl}-N-(prop-2-yn-1-yl)acetamide]
0.01 to 10 nM	CCCCc1nc(O)c(-c2nnc(CC(=O)Nc3cc(C)n[nH]3)o2)c(O)c1-c1c(OC)cccc1OC [Example 263, 2-{5-[6-butyl-5-(2,6-dimethoxyphenyl)-2,4-dihydroxy-pyridin-3-yl]-1,3,4-oxadiazol-2-yl}-N-(3-methyl-1H-pyrazol-5-yl)acetamide]
0.01 to 10 nM	CCCCc1nc(O)c(-c2nnc(CC(=O)NCc3ccccc3C)o2)c(O)c1-c1c(OC)cccc1OC [Example 264, 2-{5-[6-butyl-5-(2,6-dimethoxyphenyl)-2,4-dihydroxy-pyridin-3-yl]-1,3,4-oxadiazol-2-yl}-N-[(2-methylphenyl)methyl]acetamide]
0.01 to 10 nM	CCCCc1nc(O)c(-c2nnc(CC(=O)NCc3ccccc3Cl)o2)c(O)c1-c1c(OC)cccc1OC [Example 265, 2-{5-[6-butyl-5-(2,6-dimethoxyphenyl)-2,4-dihydroxy-pyridin-3-yl]-1,3,4-oxadiazol-2-yl}-N-[(2-chlorophenyl)methyl]acetamide]
0.01 to 10 nM	CCCCc1nc(O)c(-c2nnc(CC(=O)NCc3ccc(Cl)cc3)o2)c(O)c1-c1c(OC)cccc1OC [Example 266, 2-{5-[6-butyl-5-(2,6-dimethoxyphenyl)-2,4-dihydroxy-pyridin-3-yl]-1,3,4-oxadiazol-2-yl}-N-[(4-chlorophenyl)methyl]acetamide]
0.01 to 10 nM	CCCCc1nc(O)c(-c2nnc(CC(=O)NCCc3ccc(Cl)cc3)o2)c(O)c1-c1c(OC)cccc1OC [Example 267, 2-{5-[6-butyl-5-(2,6-dimethoxyphenyl)-2,4-dihydroxy-pyridin-3-yl]-1,3,4-oxadiazol-2-yl}-N-[2-(4-chlorophenyl)ethyl]acetamide]
0.01 to 10 nM	CCCCc1nc(O)c(-c2nnc(CC(=O)NCc3ccncc3)o2)c(O)c1-c1c(OC)cccc1OC [Example 268, 2-{5-[6-butyl-5-(2,6-dimethoxyphenyl)-2,4-dihydroxy-pyridin-3-yl]-1,3,4-oxadiazol-2-yl}-N-[(pyridin-4-yl)methyl] acetamide]
0.01 to 10 nM	CCCCc1nc(O)c(-c2nnc(CC(=O)NCc3ccc(OC)cc3)o2)c(O)c1-c1c(OC)cccc1OC [Example 269, 2-{5-[6-butyl-5-(2,6-dimethoxyphenyl)-2,4-dihydroxy-pyridin-3-yl]-1,3,4-oxadiazol-2-yl}-N-[(4-methoxyphenyl)methyl]acetamide]
